According to patent US8536225B2, “Therapeutic methods employing nitric oxide precursors” (Vanderbilt University, priority 1999, dated 2013):

Key:
Format in all cases: in vivo, Duroc swine
[1] = Pharmacokinetics of plasma citrulline and arginine after single dose of IV citrulline; details: piglets, single dose IV citrulline 600 mg/kg
Experimental: (§1) Intravenous citrulline has not been previously used in a clinical model. This Example assessed the safety of IV citrulline and its effect on serum arginine levels in piglets. A total of 9 Duroc swine, aged 5-21 days, with a target minimum weight of 4 kg were utilized. All piglets underwent anesthetic induction and tracheostomy. Central lines were placed in the femoral artery and femoral vein and hemodynamics monitored continuously. Citrulline (600 mg/kg IV) was administered to 5 piglets. Saline was given to control animals. Serum amino acids were drawn before and each hour after citrulline administration.
Pharmacokinetics: Based on the above data, the pharmacokinetics were calculated for both plasma citrulline and arginie levels after the single dose of IV citrulline. Pharmacokinetic data included plasma half-life (t½), elimination constant (Kel), volume of distribution (Vd), and plasma clearance (CLp).

[2] = Serum arginine levels after intravenous citrulline in piglets; details: citrulline 600 mg/kg IV
Experimental: as §1

[3] = Hemodynamic monitoring (mean arterial blood pressure) after IV citrulline in piglets; details: citrulline 600 mg/kg IV
Experimental: as §1

**Q.** With `NC(=O)NCCC[C@H](N)C(=O)O` [Citrulline, citrulline] as the molecule, how does the half-life ([1]; Duroc, pig, plasma, read-out: Plasma citrulline half-life (t½) (converted)) read?
**A.** The half-life was 1.5 h.

**Q.** And the clearance ([1]; Duroc, pig, plasma, read-out: Plasma citrulline plasma clearance (CLp) (converted))?
**A.** The clearance was 17.5 mL/min.

**Q.** And the Vd ([1]; Duroc, pig, plasma, read-out: Plasma citrulline volume of distribution (Vd))?
**A.** Its Vd is 2.25 L.

**Q.** And the “Plasma citrulline elimination constant (Kel)” value [1]?
**A.** The value was 0.462 h⁻¹.

**Q.** And the “Time of peak serum arginine levels following IV citrulline administration” value [2]?
**A.** Its value is 1 to 2 h.

**Q.** What about the “Arginine Levels Following IV Citrulline, 1 hour post” value ([2]; 1 hour post, serum) of the same molecule?
**A.** Its value is 535.0 µmol/L.

**Q.** What about the “Arginine Levels Following IV Citrulline, 2 hours post” value ([2]; 2 hours post, serum) of the same molecule?
**A.** The value was 559.8 µmol/L.

**Q.** And the “Arginine Levels Following IV Citrulline, 3 hours post” value ([2]; 3 hours post, serum)?
**A.** Its value is 498.4 µmol/L.

**Q.** What about the “Arginine Levels Following IV Citrulline, Baseline” value ([2]; baseline (before administration), serum) of the same molecule?
**A.** Its value is 131.5 µmol/L.

**Q.** What about the “Mean Arterial Blood Pressures Following IV Citrulline, 1 hour post” value ([3]; 1 hour post) of the same molecule?
**A.** Its value is 67.4 mmHg.

**Q.** What about the “Mean Arterial Blood Pressures Following IV Citrulline, 2 hours post” value ([3]; 2 hours post) of the same molecule?
**A.** The value was 64.8 mmHg.

**Q.** What about the “Mean Arterial Blood Pressures Following IV Citrulline, 3 hours post” value ([3]; 3 hours post) of the same molecule?
**A.** The value was 62.2 mmHg.

**Q.** What about the Hemodynamic instability ([3]; hemodynamics monitored continuously) of the same molecule?
**A.** The Hemodynamic instability was “No hemodynamic instability was observed”.

**Q.** What about the “Mean Arterial Blood Pressures Following IV Citrulline, Pre-dose” value ([3]; pre-dose) of the same molecule?
**A.** Its value is 67.0 mmHg.
